Like-named read-outs stand apart in the source and are kept apart here.
Assay: Single and multiple dose pharmacokinetics, 4 μg QD vs 8 μg TIW, subjects in general good health (Example 5)
Format: in vivo, human
Settings: for AUC(0-inf) / Cmax / Tmax / half-life / AUC(0-t): human, plasma, oral; for half-life: harmonic mean ± pseudo-standard deviation
Procedure: Methodology: This Phase I, multiple-dose, open-label, randomized study was conducted according to an […], crossover design. Subjects were randomized into two sequence groups of equal size of Regimens A and B. Subjects received the following regimens: • Regimen A: One 4 μg paricalcitol soft elastic capsule on Study Day 1 and one 4 μg paricalcitol capsule QD for 11 doses on Study Days 3 through 13. • Regimen B: Two 4 μg paricalcitol soft elastic capsules three times a week (8 μg TIW) for 6 doses on Study Days 1, 3, 5, 8, 10, and 12.
The paricalcitol dose was administered at approximately 0700, 30 minutes after breakfast was served on the dosing days of each period. Each dose was administered orally with 240 mL of water. A washout interval of at least 7 days separated the dose of period 1 and dose of period 2.
Seven (7) mL blood samples (to yield at least 3 mL of plasma) were obtained by venipuncture for paricalcitol plasma concentration into appropriately labeled EDTA-containing collection tubes. The blood sampling was as shown below in Table 10.
For Regimen B, a blood sample was collected 48 hours after the Study Day 5 dose (Study Day 7) and immediately prior to dosing (0 hour) on Study Day 10.
Plasma concentrations of paricalcitol were determined using a validated liquid chromatography-tandem mass spectrometric assay method at Abbott Laboratories, Abbott Park, Ill. (a proprietary method of Abbott Laboratories). The lower limit of quantification (abbreviated as “LOQ”) of paricalcitol was 0.02 ng/mL using a 0.6 mL plasma sample.
Pharmacokinetics: The following pharmacokinetic parameter values were determined using standard non-compartmental methods: maximum observed plasma concentration (Cmax), time to Cmax(Tmax), terminal phase elimination rate constant (β), terminal elimination half-life (t1/2), area under the plasma concentration vs. time curve extrapolated to infinite time (AUC0-∞) following the first dose and area under the plasma concentration vs. time curve over the dose interval at steady state (AUC0-τ; also referred to as AUC0-48 or AUC0-24 as appropriate). Accumulation index (AI) and degree of fluctuation (DFL) were also evaluated at steady state.
Statistical Methods: An analysis of variance (ANOVA) was performed to compare single- and multiple-dose pharmacokinetics of paricalcitol. The model included effects for sequence, subject nested within sequence, day (i.e., first dose or last dose), and sequence by day interaction. The effect for subject was random, while all other effects were fixed. The analyzed variables include Tmax, β, and the logarithms of AUC and Cmax. The AUC value for the single dose was AUC0-∞, while the AUC for the multiple dose was AUC0-24. The trough concentrations were analyzed using the same ANOVA model described above to address the issue of steady state attainment for the QD regimen.
The logarithmic transformation was also used for AUC. The model had effects for sequence, subject nested within sequence, period and regimen. The effect for subject was random, while all other effects were fixed. […] Study Day 1 Tmax, β, dose-normalized Cmax and AUC0-∞ from Regimen A and Regimen B were analyzed using the same ANOVA model. […] This same model again was used to compare Regimen A and Regimen B with respect to AI values.

[1] = Regimen A 4 μg QD, Study Day 12
[2] = Regimen A 4 μg QD, Study Day 13
[3] = Regimen B 8 μg TIW, Study Day 1
[4] = Regimen B 8 μg TIW, Study Day 12 and 13
[5] = 4 ug, Regimen A 4 μg QD, Study Day 1
[6] = 4 ug, Regimen A 4 μg QD, Study Day 12
[7] = 4 ug, Regimen A 4 μg QD, Study Day 13
[8] = 8 ug, Regimen B 8 μg TIW, Study Day 1
[9] = 8 ug, Regimen B 8 μg TIW, Study Day 12 and 13

**Q.** For C[C@H](/C=C/[C@H](C)C(C)(C)O)[C@H]1CC[C@H]2/C(=C/C=C3C[C@@H](O)C[C@H](O)C3)CCC[C@]12C [Paricalcitol, 19-nor-1α,3β,25-trihydroxy-9,10-secoergosta-5(Z); 7(E),22(E)-triene], which “steady state reached by” value (4 μg QD or 8 μg TIW) is on record?
**A.** The value was at most 7 Study Day.

**Q.** What about the CL/F (Regimen A 4 μg QD, Study Day 1) of the same compound?
**A.** Its CL/F is 3.95 ± 1.19^Φ L/h.

**Q.** And the Vdβ/F (Regimen A 4 μg QD, Study Day 1)?
**A.** The Vdβ/F was 38.9 ± 18.7^Φ L.

**Q.** What about the AI [1] of the same compound?
**A.** The AI was 1.759 ± 1.829.

**Q.** And the CL/F [1]?
**A.** The CL/F was 4.33 ± 2.08 L/h.

**Q.** And the Cmin [1]?
**A.** Its Cmin is 0.005 ± 0.010 ng/mL.

**Q.** What about the DFL [1] of the same compound?
**A.** The DFL was 2.584 ± 0.889.

**Q.** And the Vdβ/F [1]?
**A.** Its Vdβ/F is 44.9 ± 23.0^ε L.

**Q.** What about the AI [2] of the same compound?
**A.** The AI was 1.483 ± 1.442.

**Q.** And the AUC/Dose (AUC0-24/Dose) [2]?
**A.** The AUC/Dose (AUC0-24/Dose) was 0.226 ± 0.049 ng·h/mL/µg.

**Q.** And the CL/F [2]?
**A.** The CL/F was 4.65 ± 1.16 L/h.

**Q.** And the Cmin [2]?
**A.** The Cmin was 0.001 ± 0.005 ng/mL.

**Q.** What about the DFL [2] of the same compound?
**A.** Its DFL is 2.761 ± 0.761.

**Q.** And the Vdβ/F [2]?
**A.** The Vdβ/F was 43.7 ± 17.9^ε L.

**Q.** What about the CL/F [3] of the same compound?
**A.** Its CL/F is 3.65 ± 1.61 L/h.

**Q.** And the Vdβ/F [3]?
**A.** The Vdβ/F was 41.0 ± 12.7 L.

**Q.** And the AI [4]?
**A.** The AI was 1.000 ± 0.312.

**Q.** And the CL/F [4]?
**A.** Its CL/F is 3.79 ± 1.07 L/h.

**Q.** What about the Cmin [4] of the same compound?
**A.** Its Cmin is 0.000 ± 0.000 ng/mL.

**Q.** What about the DFL [4] of the same compound?
**A.** Its DFL is 4.637 ± 1.397.

**Q.** What about the Vdβ/F [4] of the same compound?
**A.** Its Vdβ/F is 42.1 ± 28.7^δ L.

**Q.** What about the AUC(0-inf) [5] of the same compound?
**A.** The AUC(0-inf) was 1.11 ± 0.342 ng·h/mL.

**Q.** What about the Cmax [5] of the same compound?
**A.** Its Cmax is 0.1 ± 0.033 ng/mL.

**Q.** And the Tmax [5]?
**A.** Its Tmax is 4.8 ± 2.8 h.

**Q.** And the half-life [5]?
**A.** The half-life was 6.2 ± 2.1 h.

**Q.** What about the AUC(0-t) (4 ug, Regimen A 4 μg QD, Study Day 1, read-out: AUC0-t) of the same compound?
**A.** Its AUC(0-t) is 0.701 ± 0.339 ng·h/mL.

**Q.** What about the Cmax [6] of the same compound?
**A.** Its Cmax is 0.112 ± 0.031 ng/mL.

**Q.** And the Tmax [6]?
**A.** Its Tmax is 4.4 ± 2.6 h.

**Q.** And the half-life [6]?
**A.** Its half-life is 6.8 ± 3.1 h.

**Q.** What about the AUC(0-t) (4 ug, Regimen A 4 μg QD, Study Day 12, read-out: AUC0-τ (AUC0-24)) of the same compound?
**A.** The AUC(0-t) was 1.07 ± 0.359 ng·h/mL.

**Q.** And the Cmax [7]?
**A.** Its Cmax is 0.105 ± 0.035 ng/mL.

**Q.** And the Tmax [7]?
**A.** Its Tmax is 4.5 ± 1.6 h.

**Q.** What about the half-life [7] of the same compound?
**A.** The half-life was 5.8 ± 2.5 h.

**Q.** What about the AUC(0-t) (4 ug, Regimen A 4 μg QD, Study Day 13, read-out: AUC0-τ (AUC0-24)) of the same compound?
**A.** The AUC(0-t) was 0.904 ± 0.196 ng·h/mL.

**Q.** And the AUC(0-inf) [8]?
**A.** The AUC(0-inf) was 2.55 ± 1.08 ng·h/mL.

**Q.** What about the Cmax [8] of the same compound?
**A.** Its Cmax is 0.2 ± 0.062 ng/mL.

**Q.** And the Tmax [8]?
**A.** Its Tmax is 4.4 ± 1.4 h.

**Q.** And the half-life [8]?
**A.** The half-life was 7.3 ± 3.2 h.

**Q.** What about the AUC(0-t) (8 ug, Regimen B 8 μg TIW, Study Day 1, read-out: AUC0-t) of the same compound?
**A.** Its AUC(0-t) is 2.05 ± 0.881 ng·h/mL.

**Q.** And the Cmax [9]?
**A.** Its Cmax is 0.217 ± 0.077 ng/mL.

**Q.** What about the Tmax [9] of the same compound?
**A.** The Tmax was 4.3 ± 2.6 h.

**Q.** What about the half-life [9] of the same compound?
**A.** Its half-life is 6.8 ± 2.2 h.

**Q.** And the AUC(0-t) (8 ug, Regimen B 8 μg TIW, Study Day 12 and 13, read-out: AUC0-τ (AUC0-48))?
**A.** The AUC(0-t) was 2.26 ± 0.566 ng·h/mL.

**Q.** And the “dose proportionality of pharmacokinetics” value (single dose and steady state over the studied dose range)?
**A.** Its value is “dose proportional”.

Reference: US20060009425A1, “Oral formulations of paricalcitol” (priority 2004, published 2006)
